Legend:
human IRAK4 = target: T1, human IRAK4 (Homo sapiens, UniProt Q9NWZ3); assay: Human IRAK4 kinase activity inhibition assay (IRAK4 TR-FRET assay); format: biochemical; details: 1 mM ATP, GST-human IRAK4, average or median values
T1 construct: GST (N); made in house; host or cells: baculovirus-infected Hi5 (BTI-TN-5B1-4) insect cells
T1 sequence (Q9NWZ3 1-460): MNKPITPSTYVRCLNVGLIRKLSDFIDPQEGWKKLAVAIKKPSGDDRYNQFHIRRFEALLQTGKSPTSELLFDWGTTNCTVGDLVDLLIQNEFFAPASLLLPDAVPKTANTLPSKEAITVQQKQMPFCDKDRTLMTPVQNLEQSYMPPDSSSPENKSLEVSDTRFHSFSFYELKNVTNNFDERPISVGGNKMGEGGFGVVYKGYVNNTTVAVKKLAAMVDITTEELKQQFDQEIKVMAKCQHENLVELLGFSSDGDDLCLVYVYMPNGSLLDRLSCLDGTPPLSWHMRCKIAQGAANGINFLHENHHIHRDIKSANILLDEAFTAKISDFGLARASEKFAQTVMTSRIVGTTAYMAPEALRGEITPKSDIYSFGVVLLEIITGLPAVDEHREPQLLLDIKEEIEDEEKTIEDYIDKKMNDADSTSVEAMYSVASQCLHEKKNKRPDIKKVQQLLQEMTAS
Procedure, shortened: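 GST-IRAK4 from insect cells (about 0.2 nM, linear range) was preincubated 15 min with compound (11 concentrations, 20 µM–0.073 nM) in HEPES pH 7.5 with MgCl2 and DTT before kinase reaction on a biotinylated peptide. Phosphopeptide was detected by TR-FRET (Eu anti-mouse-IgG/anti-phosphoserine/streptavidin-XL665, 1 h at 22°C) as the 665/620 nm ratio, normalized to no-compound and no-enzyme controls.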

[1] = Metabolic stability in human liver microsomes; details: 1 µM compound; for CLblood, human microsomes: hepatic in vivo blood clearance calculated with well stirred liver model, '(stable)' given beside < 0.01; for Fmax, human microsomes: maximal oral bioavailability calculated with well stirred liver model, 0.5 mg/mL protein, '(stable)' given beside 100

IC50 (human IRAK4) [nM]	CLblood, human microsomes [1]	Fmax, human microsomes [1]	Compound
0.861	0.17 L/h/kg	87%	CC(C)(N)C1CCN(c2nc(N[C@@H]3CNC(=O)C3)nc3c2cnn3-c2cccc(C(F)(F)F)c2)CC1 [Example I-47, (4S)-4-({4-[4-(2-aminopropan-2-yl)piperidin-1-yl]-1-[3-(trifluoromethyl)phenyl]-1H-pyrazolo[3,4-d]pyrimidin-6-yl}amino)pyrrolidin-2-one]
1.12	< 0.01 (stable) L/h/kg	100 (stable) %	NC1(C2CCN(c3nc(N[C@@H]4CNC(=O)C4)nc4c3cnn4-c3cccc(C(F)(F)F)c3)CC2)CC1 [Example I-48, (4S)-4-({4-[4-(1-aminocyclopropyl)piperidin-1-yl]-1-[3-(trifluoromethyl)phenyl]-1H-pyrazolo[3,4-d]pyrimidin-6-yl}amino)pyrrolidin-2-one]
3.85	0.13 L/h/kg	90%	CC(C)(O)CC1CN(c2nc(N[C@@H]3CNC(=O)C3)nc3c2cnn3-c2cccc(C(F)(F)F)c2)C1 [Example I-49, (4S)-4-({4-[3-(2-hydroxy-2-methylpropyl)azetidin-1-yl]-1-[3-(trifluoromethyl)phenyl]-1H-pyrazolo[3,4-d]pyrimidin-6-yl}amino)pyrrolidin-2-one]
2.5	0.25 L/h/kg	81%	O=C1C[C@H](Nc2nc(N3CC(CC(=O)N4CCOCC4)C3)c3cnn(-c4cccc(C(F)(F)F)c4)c3n2)CN1 [Example I-51, (4S)-4-[(4-{3-[2-(morpholin-4-yl)-2-oxoethyl]azetidin-1-yl}-1-[3-(trifluoromethyl)phenyl]-1H-pyrazolo[3,4-d]pyrimidin-6-yl)amino]pyrrolidin-2-one]
23	< 0.01 (stable) L/h/kg	100 (stable) %	C[C@]1(N)C[C@@H](Nc2nc(N3CCOCC3)c3cnn(-c4cccc(C(F)(F)F)c4)c3n2)C1 [Example I-58, cis-1-methyl-N^3-{4-(morpholin-4-yl)-1-[3-(trifluoromethyl)phenyl]-1H-pyrazolo[3,4-d]pyrimidin-6-yl}cyclobutane-1,3-diamine]
3.63	0.34 L/h/kg	74%	CC1(N2CCOCC2)CN(c2nc(N[C@H]3C[C@H](S(C)(=O)=O)C3)nc3c2cnn3-c2cccc(C(F)(F)F)c2)C1 [Example I-59, 4-[3-methyl-3-(morpholin-4-yl)azetidin-1-yl]-N-[trans-3-(methylsulfonyl)cyclobutyl]-1-[3-(trifluoromethyl)phenyl]-1H-pyrazolo[3,4-d]pyrimidin-6-amine]
34.2	0.37 L/h/kg	72%	O=S1(=O)CCC(Nc2nc(N3CC(CN4CCOCC4)C3)c3cnn(-c4cccc(C(F)(F)F)c4)c3n2)CC1 [Example I-60, N-(1,1-dioxidotetrahydro-2H-thiopyran-4-yl)-4-[3-(morpholin-4-ylmethyl)azetidin-1-yl]-1-[3-(trifluoromethyl)phenyl]-1H-pyrazolo[3,4-d]pyrimidin-6-amine]
2.57	< 0.01 (stable) L/h/kg	100 (stable) %	NC1(C2CCN(c3nc(NC4CCS(=O)(=O)CC4)nc4c3cnn4-c3cccc(C(F)(F)F)c3)CC2)CC1 [Example I-62, 4-[4-(1-aminocyclopropyl)piperidin-1-yl]-N-(1,1-dioxidotetrahydro-2H-thiopyran-4-yl)-1-[3-(trifluoromethyl)phenyl]-1H-pyrazolo[3,4-d]pyrimidin-6-amine]
5.33	0.24 L/h/kg	82%	CC(C)(O)CC1CN(c2nc(N[C@H]3C[C@H](S(C)(=O)=O)C3)nc3c2cnn3-c2cccc(C(F)(F)F)c2)C1 [Example I-67, 2-methyl-1-[1-(6-{[trans-3-(methylsulfonyl)cyclobutyl]amino}-1-[3-(trifluoromethyl)-phenyl]-1H-pyrazolo[3,4-d]pyrimidin-4-yl)azetidin-3-yl]propan-2-ol]
23	0.02 L/h/kg	99%	CC(C)(O)CC1CN(c2nc(NC3CN(S(C)(=O)=O)C3)nc3c2cnn3-c2cccc(C(F)(F)F)c2)C1 [Example I-68, 2-methyl-1-[1-(6-{[1-(methylsulfonyl)azetidin-3-yl]amino}-1-[3-(trifluoromethyl)phenyl]-1H-pyrazolo[3,4-d]pyrimidin-4-yl)azetidin-3-yl]propan-2-ol]
4.83	0.11 L/h/kg	91%	O[C@H]1C[C@H](Nc2nc(N3CC(N4CCOCC4)C3)c3cnn(-c4cccc(C(F)(F)F)c4)c3n2)C1 [Example I-74, trans-3-({4-[3-(morpholin-4-yl)azetidin-1-yl]-1-[3-(trifluoromethyl)phenyl]-1H-pyrazolo-[3,4-d]pyrimidin-6-yl}amino)cyclobutanol]
9.61	0.30 L/h/kg	77%	CC1(N2CCOCC2)CN(c2nc(N[C@H]3C[C@@H](O)C3)nc3c2cnn3-c2cccc(C(F)(F)F)c2)C1 [Example I-76, cis-3-({4-[3-methyl-3-(morpholin-4-yl)azetidin-1-yl]-1-[3-(trifluoromethyl)phenyl]-1H-pyrazolo[3,4-d]pyrimidin-6-yl}amino)cyclobutanol]
4.8	0.36 L/h/kg	72%	C[C@]1(O)C[C@H](Nc2nc(N3CC(N4CCOCC4)C3)c3cnn(-c4cccc(C(F)(F)F)c4)c3n2)C1 [Example I-77, trans-1-methyl-3-({4-[3-(morpholin-4-yl)azetidin-1-yl]-1-[3-(trifluoromethyl)phenyl]-1H-pyrazolo[3,4-d]pyrimidin-6-yl}amino)cyclobutanol]
5.62	0.32 L/h/kg	76%	C[C@]1(O)C[C@@H](Nc2nc(N3CC(N4CCOCC4)C3)c3cnn(-c4cccc(C(F)(F)F)c4)c3n2)C1 [Example I-78, cis-1-methyl-3-({4-[3-(morpholin-4-yl)azetidin-1-yl]-1-[3-(trifluoromethyl)phenyl]-1H-pyrazolo[3,4-d]pyrimidin-6-yl}amino)cyclobutanol]
7.75	0.41 L/h/kg	69%	CC1(O)CCN(C2CN(c3nc(N[C@H]4C[C@H](O)C4)nc4c3cnn4-c3cccc(C(F)(F)F)c3)C2)CC1 [Example I-79, 1-(1-{6-[(trans-3-hydroxycyclobutyl)amino]-1-[3-(trifluoromethyl)phenyl]-1H-pyrazolo-[3,4-d]pyrimidin-4-yl}azetidin-3-yl)-4-methylpiperidin-4-ol]
5.53	0.23 L/h/kg	83%	CC(C)(O)C1CN(c2nc(N[C@H]3C[C@H](S(C)(=O)=O)C3)nc3c2cnn3-c2cccc(C(F)(F)F)c2)C1 [Example I-83, 2-[1-(6-{[trans-3-(methylsulfonyl)cyclobutyl]amino}-1-[3-(trifluoromethyl)phenyl]-1H-pyrazolo[3,4-d]pyrimidin-4-yl)azetidin-3-yl]propan-2-ol]
2.41	< 0.01 (stable) L/h/kg	100 (stable) %	O[C@@H]1CN(c2nc(N[C@H]3C[C@@H](O)C3)nc3c2cnn3-c2cccc(C(F)(F)F)c2)C[C@H]1O [Example I-85, (3R,4R)-1-(6-{[(1s,3S)-3-hydroxycyclobutyl]amino}-1-[3-(trifluoromethyl)phenyl]-1H-pyrazolo[3,4-d]pyrimidin-4-yl)pyrrolidine-3,4-diol]

Compound	IC50 (human IRAK4) [nM]	CLblood, human microsomes [1]	Fmax, human microsomes [1]
CC(C)(O)C1CCN(c2nc(N[C@H]3CN4CCC3CC4)nc3c2cnn3-c2cccc(C(F)(F)F)c2)CC1 [Example I-64-1, 2-(1-{6-[(3R)-1-azabicyclo[2.2.2]octan-3-ylamino]-1-[3-(trifluoromethyl)phenyl]-1H-pyrazolo[3,4-d]pyrimidin-4-yl}piperidin-4-yl)propan-2-ol]	8.58	0.32 L/h/kg	76%
CS(=O)(=O)[C@H]1C[C@H](Nc2nc(N3C[C@@H](O)[C@H](F)C3)c3cnn(-c4cccc(C(F)(F)F)c4)c3n2)C1 [Example I-86, (3R,4R)-4-fluoro-1-(6-{[(1r,3R)-3-(methylsulfonyl)cyclobutyl]amino}-1-[3-(trifluoromethyl)phenyl]-1H-pyrazolo[3,4-d]pyrimidin-4-yl)pyrrolidin-3-ol]	3.66	0.25 L/h/kg	81%

From patent EP3800188A1, “SUBSTITUTED PYRAZOLOPYRIMIDINES AS IRAK4 INHIBITORS” (Bayer AG, priority 2019, dated 2021)
